Patent US20240101585A1, “HETEROAROMATIC PHOSPHONIUM SALTS AND THEIR USE TREATING CANCER” (FLORATEK PHARMA AG, priority 2021, published 2024)
pIC50: −log10 of the molar value.

How the values were obtained:
[1] = system: breast and colon carcinomas, lymphoma and melanoma cancer cell growth; experiment: CellTiter-Glow cell viability assay, cancer cell line panel (summary statement); assay type: cell-based; settings: lymphoma and melanoma cell lines of Table 2, read-out: IC50s, cancer cell growth inhibition
Description: (§1) Antitumor activity of the compounds and doxorubicin as a positive control was assessed by using the CellTiter-Glow® Luminescent Cell Viability assay (Promega #G7572) according to the manufacturer's instructions. The compounds were tested at 5 or 6 concentrations in half-log increments (highest concentration 30 μM or 100 μM) in duplicate or triplicate well conditions.
(§2) Tumor cells were grown at 37° C. in a humidified atmosphere with 5% CO2 in RPMI 1640 or DMEM medium, supplemented with 10% (v/v) fetal calf serum and 50 μg/ml gentamicin for up to 20 passages, and were passaged once or twice weekly. Cells were harvested using TrypLE or PBS buffer containing 1 mM EDTA, and the percentage of viable cells was determined using a CASY Model TI cell counter (OMNI Life Science). Cells were harvested from exponential phase cultures, counted and plated in 96 well flat-bottom microtiter plates at a cell density depending on the cell line's growth rate (4,000-20,000 cells/well depending on the cell line's growth rate, up to 60,000 for hematological cancer cell lines) in RPMI 1640 or DMEM medium supplemented with 10% (v/v) fetal calf serum and 50 μg/ml gentamicin (140 μl/well). […] Viability of cells was quantified by or CellTiter-Glow® Luminescent Cell Viability assay (Promega #G7572). Luminescence was measured with a microplate luminometer (Promega or PerkinElmer. […]

[2] = system: SK-Mel-5; experiment: CellTiter-Glow Luminescent Cell Viability assay, SK-Mel-5 (melanoma); assay type: cell-based; settings: Homo sapiens, 72 h, absolute IC50 (T/C=50%), read-out: IC50 against SK-Mel-5
Description: as §1, §2

[3] = In vivo tolerability, maximum tolerated dose in nude mice
Description: To assess the toxicity of the test compounds in vivo and to determine the maximum tolerated dose 4 BALB/c Nude male mice, 4-9 weeks old were injected intraperitoneally (i.p) with various doses of the drug or vehicle 2.5% DMSO/5% EtOH/20% PEG200 in saline. The volume of the injection was 5 ml/kg. The administered doses were confirmed by LC-UV or LC-MS/MS.
Mice were monitored for body weight before each injection and twice a day for clinical signs of toxicity.
All procedures related to animal handling, care and the treatment in the study were performed according to the guidelines of the Association for Assessment and Accreditation of Laboratory Animal Care (AAALAC).
In order to assess the in vivo toxicity of SND350 various doses of the drug were administered either as a single dose or repeat doses into nude mice.

[4] = system: KM12; experiment: CellTiter-Glow Luminescent Cell Viability assay, KM12 (colon); assay type: cell-based; settings: Homo sapiens, 72 h, absolute IC50 (T/C=50%), read-out: IC50 against KM12
Description: as §1, §2

[5] = system: MDA-MB-468; experiment: CellTiter-Glow Luminescent Cell Viability assay, MDA-MB-468 (breast); assay type: cell-based; settings: Homo sapiens, 72 h, absolute IC50 (T/C=50%), read-out: IC50 against MDA-MB-468
Description: as §1, §2

[6] = system: Farage; experiment: CellTiter-Glow Luminescent Cell Viability assay, Farage (lymphoma); assay type: cell-based; settings: 72 h, absolute IC50 (T/C=50%), read-out: IC50 against Farage
Description: as §1, §2

[7] = system: A2058; experiment: CellTiter-Glow Luminescent Cell Viability assay, A2058 (melanoma); assay type: cell-based; settings: Homo sapiens, 72 h, absolute IC50 (T/C=50%), read-out: IC50 against A2058
Description: as §1, §2

[8] = system: U937; experiment: CellTiter-Glow Luminescent Cell Viability assay, U937 (lymphoma); assay type: cell-based; settings: Homo sapiens, U-937, 72 h, absolute IC50 (T/C=50%), read-out: IC50 against U937
Description: as §1, §2

[9] = system: A375; experiment: CellTiter-Glow Luminescent Cell Viability assay, A375 (melanoma); assay type: cell-based; settings: Homo sapiens, A-375, 72 h, absolute IC50 (T/C=50%), read-out: IC50 against A375
Description: as §1, §2

Question: With `COc1c(O)cc(O)c2c(=O)cc(-c3ccc(CCCCC[P+](c4ccccc4)(c4ccccc4)c4ccccc4)cc3)oc12.[Br-]` [SND350, (5-(4-(5,7-dihydroxy-8-methoxy-4-oxo-4H-chromen-2-yl)phenyl)pentyl)triphenylphosphonium bromide] as the compound, how does the pIC50 [1] read?
Answer: > 5.00

Question: What about the pIC50 [2] of the same compound?
Answer: 5.68

Question: What about the “tolerability of multiple administrations” value ([3]; i.p., qod for a total of 7 injections, 10 mg/kg/inj) of the same compound?
Answer: well tolerated

Question: And the MTD ([3]; male, BALB/c Nude, mouse, in vivo, ip, single i.p. administration)?
Answer: 40 mg/kg

Question: And the pIC50 [4]?
Answer: 5.55

Question: And the pIC50 [5]?
Answer: 5.55

Question: What about the pIC50 [6] of the same compound?
Answer: 6.10

Question: What about the pIC50 [7] of the same compound?
Answer: 5.19

Question: And the pIC50 [8]?
Answer: 5.54

Question: And the pIC50 [9]?
Answer: 5.05
